According to patent publication US20250205191A1, “R(-)-MDMA COMPOSITIONS AND METHODS OF TREATMENT” (EmpathBio, Inc., priority 2023, published 2025):

How the values were obtained:
healthy volunteers [1] = test: Phase 1 Emotional Breakthrough Inventory (EBI); format: in vivo, human
Description: Self-reported Emotional Breakthrough Inventory (EBI) include facing emotionally difficult feelings that are usually pushed aside; experiencing resolution of a personal conflict or trauma; ability to explore challenging emotions and memories; having an emotional breakthrough; achieving a sense of closure on an emotional problem; and achieving emotional release followed by sense of relief. Emotional breakthrough is an important and distinct component of the acute psychedelic experience that appears to be a key mediator (state predictor) of subsequent longer-term psychological changes in psychiatric populations. (Carhartt-Harris, et al., Trial of Psilocybin versus Escitalopram for Depression, N Engl J Med 2021; 384:1402-1411).

healthy volunteers [2] = test: Phase 1 clinical study, safety and tolerability; format: in vivo, human
Description: The primary endpoints assessed the safety, tolerability, pharmacokinetics (PK), and exploratory pharmacodynamic (PD) observations. Treatment-related adverse events (AEs) were in line with expectations (e.g., nausea at 29.2%, headache at 16.7%) and generally dose dependent.

[3] = target: T1, human 5-HT2C (non-edited) receptor (Homo sapiens, UniProt P28335); test: 5-HT2C (non-edited) agonism, inositol monophosphate accumulation (HTRF), CHO-K1 recombinant cells; format: cell-based
T1 construct: expressed in transfected cells; host or cells: CHO-K1
T1 sequence (P28335 33-458): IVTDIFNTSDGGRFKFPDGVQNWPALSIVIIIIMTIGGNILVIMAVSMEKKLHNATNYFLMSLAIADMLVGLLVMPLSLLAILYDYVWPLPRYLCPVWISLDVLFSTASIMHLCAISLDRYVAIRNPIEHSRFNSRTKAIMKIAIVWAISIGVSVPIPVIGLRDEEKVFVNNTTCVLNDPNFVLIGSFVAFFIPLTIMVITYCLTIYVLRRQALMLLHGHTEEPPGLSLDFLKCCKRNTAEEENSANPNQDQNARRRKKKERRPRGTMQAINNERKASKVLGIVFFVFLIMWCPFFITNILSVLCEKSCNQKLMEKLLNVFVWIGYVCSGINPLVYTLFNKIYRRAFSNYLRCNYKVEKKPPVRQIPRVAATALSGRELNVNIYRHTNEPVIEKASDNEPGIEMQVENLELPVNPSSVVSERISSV

oxytocin = test: Phase 1 hormone response, oxytocin; format: in vivo, human; settings: any cohort vs placebo group
male C57BL/6J mice [4] = test: Mouse head twitch response (HTR); format: in vivo; settings: 3 mg/kg IP, 30 min, vs vehicle control group
Description: Mouse Head Twitch (HTR) is a side-to-side rotational head movement in rodents that is widely employed as a behavioral measure of 5-HT2A receptor activation (Halberstadt and Geyer 2013). […] Animals with head mounted magnets were dosed intraperitoneally and immediately tested for HTR for 30 min using an automated magnetometer detection system (Halberstadt and Geyer 2013).

male C57BL/6J mice [5] = test: Mouse extinction of fear learning assay; format: in vivo; settings: vs vehicle
Description: Extinction of fear learning in rodents is a useful assay to understand if compounds have the potential to enhance learning processes that may be involved in recovery from SAD and other stress and anxiety related disorders, due to its resemblance to exposure-based therapy in humans. […] Freezing behavior, an indicator of the fear response, was measured in the presence of the CS during the extinction training session (Day 1) and the day after (Day 2, Extinction Testing, in the absence of test article). Locomotor activity was measured during the initial 2-minute habituation period, prior to the presentation of the CS, on Days 1 and 2.

[6] = test system: rat embryonic cortical neurons; test: In vitro rat cortical neurite outgrowth; format: cell-based; settings: 3 days, vs vehicle control
Description: The experiment included a 0.1% sterile water vehicle negative control condition and a 250 nM donepezil positive control condition, and the number of neurites per neuron, total neurite length per neuron and branchpoints per neuron from n=12 wells per treatment were compared to the vehicle control condition.

healthy volunteers [7] = test: Facial Emotion Recognition Test (FERT); format: in vivo, human
[8] = Phase 1 clinical study, urine pharmacokinetics (urinalysis); format: in vivo, human
[9] = single oral 75-225 mg, healthy participants
[10] = urine analyte after EMP-01 125 mg, Day 9
[11] = urine analyte after single oral 75 mg R(−)-MDMA, Day 1
[12] = urine analyte after single oral 125 mg R(−)-MDMA, Day 1
[13] = urine analyte after single oral 175 mg R(−)-MDMA, Day 1
[14] = urine analyte after single oral 225 mg R(−)-MDMA, Day 1

Q: Which results are given for `CN[C@H](C)Cc1ccc2c(c1)OCO2` [R(−)-MDMA, R(−)-3,4-methylenedioxymethamphetamine]?
A: EBI, acute experience of emotional breakthroughs (healthy volunteers [1]; 225 mg vs placebo): significantly higher; EBI, acute experience of emotional breakthroughs, dose response (healthy volunteers [1]; 75-225 mg): dose-dependent increase; bruxism (healthy volunteers [2]; highest dose (225 mg)): observed in a single subject; peak body temperatures (healthy volunteers [2]; single oral 75-225 mg): within the normal range; serious or severe AEs (healthy volunteers [2]; single oral 75-225 mg): no serious or severe AEs were observed; study discontinuations (healthy volunteers [2]; single oral 75-225 mg): no study discontinuations; treatment-related adverse event: headache (healthy volunteers [2]; [9]): 16.7%; treatment-related adverse event: nausea (healthy volunteers [2]; [9]): 29.2%; blood pressure and heart rate (healthy volunteers [2]; single oral 75-225 mg, limited dose dependency): Non-clinically significant increases; agonism in words ([3]; 5-HT2C (non-edited) receptors): high potency full agonism; Efficacy (% of a-Me-5-HT response) ([3]; 5-HT2C (non-edited), relative to α-Me-5-HT at its EC100): 97.9%; oxytocin production (oxytocin): did not appear to have an effect; head twitch response (HTR) (male C57BL/6J mice [4]): significantly increased; freezing behavior (male C57BL/6J mice [5]; 10 mg/kg IP once): significantly reduced freezing behavior on Day 2 only; locomotor activity (male C57BL/6J mice [5]; 10 mg/kg IP once): significantly increased activity on Day 1 only; freezing behavior (male C57BL/6J mice [5]; 17 mg/kg IP once): significant reductions of freezing behavior on Days 1 and 2; locomotor activity (male C57BL/6J mice [5]; 17 mg/kg IP once): significantly increased activity on Day 1 only; freezing behavior (male C57BL/6J mice [5]; 30 mg/kg IP once): significant reductions of freezing behavior on Days 1 and 2; locomotor activity (activity counts) (male C57BL/6J mice [5]; 30 mg/kg IP once): significant increases in activity counts on Days 1 and 2; number of neurites per neuron ([6]; 0.0001 μM): modest yet significant increases; branchpoints per neuron ([6]; 10 μM): modest yet significant increases; number of neurites per neuron ([6]; 10 μM): modest yet significant increases; total neurite length per neuron ([6]; 10 μM): modest yet significant increases; reduction in the recognition of angry (threatening) faces (healthy volunteers [7]; 75 mg): 13.2%; reduction in the recognition of angry (threatening) faces (healthy volunteers [7]; 125 mg): 12.3%; reduction in the recognition of angry (threatening) faces (healthy volunteers [7]; 175 mg): 8.8%; misclassifications to happy faces, change from baseline (mean) (healthy volunteers [7]; 225 mg): +1.16; reduction in the recognition of angry (threatening) faces (healthy volunteers [7]; 225 mg): 12.4%; detection in urine ([8]; 0-4 hours postdose): detected in urine in all participants by the first collection interval; mean cumulative amount excreted in urine (CAe), trend ([8]; across dose groups): dose-related increase; mean renal clearance (CLr), trend ([8]; across dose groups): approximately similar across all dose groups; mean urine concentration over collection intervals ([8]; all intervals to 30 hours): highest in the 12-24 hour collection interval; Ae12-24, amount excreted at the 12-24 hour collection interval [8, 10]: 18.5655 (12.7511) mg; CAe, cumulative amount of drug excreted [8, 10]: 40.5567 (15.5851) mg; CFe, cumulative fraction of drug excreted [8, 10]: 32.4453 (12.4681) %; CLr, renal clearance rate [8, 10]: 5.2324 (1.8093) L/h; Fe12-24, fraction of drug excreted at the 12-24 hour collection interval [8, 10]: 14.8524 (10.2009) %; Ae12-24, amount excreted at the 12-24 hour collection interval [8, 11]: 7.6917 (3.1509) mg; CAe, cumulative amount of drug excreted [8, 11]: 20.0733 (9.7605) mg; CFe, cumulative fraction of drug excreted [8, 11]: 26.7643 (13.0140) %; CLr, renal clearance rate [8, 11]: 4.9966 (1.2255) L/h; Fe12-24, fraction of drug excreted at the 12-24 hour collection interval [8, 11]: 10.2556 (4.2012) %; Ae12-24, amount excreted at the 12-24 hour collection interval [8, 12]: 14.5039 (5.6733) mg; CAe, cumulative amount of drug excreted [8, 12]: 28.2063 (7.8540) mg; CFe, cumulative fraction of drug excreted [8, 12]: 22.5650 (6.2832) %; CLr, renal clearance rate [8, 12]: 3.9900 (1.0288) L/h; Fe12-24, fraction of drug excreted at the 12-24 hour collection interval [8, 12]: 11.6031 (4.5387) %; Ae12-24, amount excreted at the 12-24 hour collection interval [8, 13]: 20.3702 (13.5536) mg; CAe, cumulative amount of drug excreted [8, 13]: 59.6271 (34.2201) mg; CFe, cumulative fraction of drug excreted [8, 13]: 34.0726 (19.5543) %; CLr, renal clearance rate [8, 13]: 5.9108 (2.5782) L/h; Fe12-24, fraction of drug excreted at the 12-24 hour collection interval [8, 13]: 11.6401 (7.7449) %; Ae12-24, amount excreted at the 12-24 hour collection interval [8, 14]: 36.8357 (16.8611) mg; CAe, cumulative amount of drug excreted [8, 14]: 76.0465 (15.1167) mg; CFe, cumulative fraction of drug excreted [8, 14]: 33.7985 (6.7186) %; CLr, renal clearance rate [8, 14]: 5.5411 (1.6424) L/h; Fe12-24, fraction of drug excreted at the 12-24 hour collection interval [8, 14]: 16.3714 (7.4938) %
